US8900194B2, “Microneedle devices and microneedle delivery apparatus” (3M Innovative Properties Company, priority 2002, dated 2014)

Settings: human, 0 h

O=[N+]([O-])OCC(CO[N+](=O)[O-])O[N+](=O)[O-] [Nitroglycerin, nitroglycerin]
Nitroglycerin Cumulative Flux: 0 μg/cm^2
